Assay results: US9999659B2, “Treatments using a peptide and/or vaccine” (AFFIRIS AG, priority 2012, dated 2018)

Tests used:
[1] = system: polyclonal antibodies in mouse sera raised against original PCSK9 sequence (aa 153-162 or aa 153-165); experiment: Competition ELISA: mimotope competes with the original PCSK9 sequence for binding of polyclonal antibodies in mouse sera; conditions: 20 μg peptide incubated with sera; irrelevant peptide = 0% competition
From the text: FIGS. 2A and 2B show the ability of PCSK9 mimotopes to compete with the original PCSK9 sequence (aa 153-162 or aa 153-165) for binding polyclonal antibodies in mouse sera raised specifically against the latter.
All mimotopes are compared to the negative group (0% competition by an irrelevant peptide). As a positive control for each competition ELISA the original PCSK9 sequences were used (aa 153-162 or aa 153-165).
The graphs display the ability (in percent) of the mimotopes to compete with the original PCSK9 sequence (aa 153-162 or aa 153-165) for binding polyclonal antibodies raised against the latter.
20 μg of each indicated peptide was incubated with sera from mice injected with original PCSK9 sequence (aa 153-162 or aa 153-165: SEQ ID No. 2). Sera were then incubated on ELISA plates coated with the original PCSK9 sequence (aa 153-162 or aa 153-165: SEQ ID No. 2). Detection was performed with anti-mouse IgG antibodies, ABTS was used as a chromogenic substrate and optical density (OD) was measured at 405 nm.
Mimotopes diminishing >20% subsequent binding of the polyclonal antibodies from the sera to the original human PCSK9 epitope (aa 153-162 or 153-165: SEQ ID No. 3) coated on the ELISA plates were considered as competing mimotopes and as good candidates.

[2] = system: polyclonal antibodies specific for human PCSK9 aa 153-162 or aa 153-165; experiment: Binding ELISA: mimotopes coated on plates, detected by mouse sera raised against the original PCSK9 sequence; conditions: mimotope coated at 1 μmol/mL; titer = serum dilution where 50% of ODmax is reached
From the text: FIGS. 1A and 1B show detection of PCSK9 mimotopes sequences by mouse sera containing polyclonal antibodies specific for human PCSK9 aa 153-162 or aa 153-165
The graphs display median titers from all mimotopes compared to the irrelevant negative control. As a positive control the original human PCSK9 sequence is included: aa 153-162 or aa 153-165. Mimotopes with values over 1:50.000 are considered as good candidates.
Mimotopes were coated on ELISA plates at a concentration of 1 μmol/mL. After blocking unspecific binding (1% BSA in PBS) appropriate dilutions of sera from mice injected with the original human PCSK9 sequence aa 153-162 or aa 153-165 (SEQ ID No. 3) were added and incubated for approximately 1 hour. Subsequently, detection with anti-mouse IgG antibodies was performed. ABTS was used as substrate. OD measurements were performed at 405 nm and titers were defined as the dilution of the serum where 50% of the ODmax is reached.

| Substance | % Competition compared to the related control group [1] [%] | Median Titer Binding ELISA (ODmax/2) [2] |
| --- | --- | --- |
| 3 (ERTKSDPGAQHREF) [compound 3] | 0 | – |
| 4 (ITELSRWPNI) [compound 4] | 0 | – |
| 5 (TIPWNLERIT; Artificial Sequence, Mimotope) [compound 5] | 52 | 198,000 |
| 6 (VIPWNLERIT; Artificial Sequence, Mimotope) [compound 6] | 51 | 12,000 |
| 7 (AIPWNLERIT; Artificial Sequence, Mimotope) [compound 7] | 88 | 199,000 |
| 8 (SVPWNLERIT; Artificial Sequence, Mimotope) [compound 8] | 62 | 197,000 |
| 9 (SQPWNLERIT; Artificial Sequence, Mimotope) [compound 9] | 30 | 149,000 |
| 10 (SAPWNLERIT; Artificial Sequence, Mimotope) [compound 10] | 76 | 131,000 |
| 11 (SGPWNLERITPPR; Artificial Sequence, Mimotope) [compound 11] | 54 | 81,000 |
| 12 (SITWNLERIT; Artificial Sequence, Mimotope) [compound 12] | 62 | 124,000 |
| 13 (SIAWNLERIT; Artificial Sequence, Mimotope) [compound 13] | 78 | 147,000 |
| 14 (SIVWNLERITPPR; Artificial Sequence, Mimotope) [compound 14] | 78 | 146,000 |
| 15 (SIPFNLERIT; Artificial Sequence, Mimotope) [compound 15] | 15 | 42,000 |
| 16 (SIPANLERIT; Artificial Sequence, Mimotope) [compound 16] | 8 | 22,000 |
| 17 (SIPGNLERIT; Artificial Sequence, Mimotope) [compound 17] | 0 | 21,000 |
| 18 (SIPHNLERIT; Artificial Sequence, Mimotope) [compound 18] | 0 | 23,000 |
| 19 (SIPDNLERIT; Artificial Sequence, Mimotope) [compound 19] | 3 | 23,000 |
| 20 (SIPSNLERIT; Artificial Sequence, Mimotope) [compound 20] | 7 | 22,000 |
| 21 (SIPWSLERIT; Artificial Sequence, Mimotope) [compound 21] | 73 | 147,000 |
| 22 (SIPWALERIT; Artificial Sequence, Mimotope) [compound 22] | 75 | 157,000 |
| 23 (SIPWQLERITPPR; Artificial Sequence, Mimotope) [compound 23] | 79 | 224,000 |
| 24 (SIPWDLERITPPR; Artificial Sequence, Mimotope) [compound 24] | 74 | 231,000 |
| 25 (SIPWNAERIT; Artificial Sequence, Mimotope) [compound 25] | 73 | 156,000 |
| 26 (SIPWNGERIT; Artificial Sequence, Mimotope) [compound 26] | 52 | 56,000 |

| Substance | % Competition compared to the related control group [1] [%] | Median Titer Binding ELISA (ODmax/2) [2] |
| --- | --- | --- |
| 27 (SIPWNYERIT; Artificial Sequence, Mimotope) [compound 27] | 76 | 115,000 |
| 28 (SIPWNDERIT; Artificial Sequence, Mimotope) [compound 28] | 71 | 131,000 |
| 29 (SIPWNFERITPPR; Artificial Sequence, Mimotope) [compound 29] | 79 | 186,000 |
| 30 (SIPWNVERITPPR; Artificial Sequence, Mimotope) [compound 30] | 78 | 197,000 |
| 31 (SIPWNLARIT; Artificial Sequence, Mimotope) [compound 31] | 13 | 34,000 |
| 32 (SIPWNLDRITPPR; Artificial Sequence, Mimotope) [compound 32] | 53 | 151,000 |
| 33 (SIPWNLEKIT; Artificial Sequence, Mimotope) [compound 33] | 19 | 59,000 |
| 34 (SIPWNLEAIT; Artificial Sequence, Mimotope) [compound 34] | 15 | 54,000 |
| 35 (SIPWNLEDIT; Artificial Sequence, Mimotope) [compound 35] | 13 | 48,000 |
| 36 (SIPWNLERLT; Artificial Sequence, Mimotope) [compound 36] | 76 | 192,000 |
| 37 (SIPWNLERTT; Artificial Sequence, Mimotope) [compound 37] | 73 | 177,000 |
| 38 (SIPWNLERAT; Artificial Sequence, Mimotope) [compound 38] | 77 | 149,000 |
| 39 (SIPWNLERIL; Artificial Sequence, Mimotope) [compound 39] | 56 | 168,000 |
| 40 (SIPWNLERIQ; Artificial Sequence, Mimotope) [compound 40] | 64 | 181,000 |
| 41 (SIPWNLERIA; Artificial Sequence, Mimotope) [compound 41] | 80 | 189,000 |
| 42 (SIPWNLERISPPR; Artificial Sequence, Mimotope) [compound 42] | 79 | 719,000 |
| 43 (SIPWNLERITAPR; Artificial Sequence, Mimotope) [compound 43] | 70 | 226,000 |
| 44 (SIPWNLERITSPR; Artificial Sequence, Mimotope) [compound 44] | 68 | 153,000 |
| 45 (SIPWNLERITPAR; Artificial Sequence, Mimotope) [compound 45] | 74 | 184,000 |
| 46 (SIPWNLERITPVR; Artificial Sequence, Mimotope) [compound 46] | 75 | 265,000 |
| 47 (SIPWNLERITPTR; Artificial Sequence, Mimotope) [compound 47] | 73 | 155,000 |
| 48 (SIPWNLERITPNR; Artificial Sequence, Mimotope) [compound 48] | 70 | 186,000 |
| 49 (SIPWNLERITPPA; Artificial Sequence, Mimotope) [compound 49] | 65 | 163,000 |
